Measurements published in patent US7772177B2, “BIR domain binding compounds” (Aegera Therapeutics, Inc., priority 2005, dated 2010).
pIC50: −log10 of the molar value.

Tests used:
GST-XIAP BIR3RING = target: T1, GST-XIAP BIR3RING (Homo sapiens, UniProt P98170); experiment: Fluorescence polarization-based competition assay, XIAP Bir3-RING; type: binding
T1 construct: made in house; host or cells: E. coli DH5-alpha
Description: GST-XIAP BIR3RING: XIAP coding sequence amino acids 246-497 cloned into PGEX2T1 via BamH1 and AVA I. The plasmid was transformed into E. coli DH5α for use in protein expression and purification.
(§1) A fluorescent peptide probe, Fmoc-Ala-Val-Pro-Phe-Tyr(t-Bu)-Leu-Pro-Gly(t-Bu)-Gly-OH was prepared using standard Fmoc chemistry on 2-chlorotrityl chloride resin (Int. J. Pept. Prot. Res. 38:555-561, 1991). Cleavage from the resin was performed using 20% acetic acid in dichloromethane (DCM), which left the side chain still blocked. The C-terminal protected carboxylic acid was coupled to 4′-(aminomethyl)fluorescein (Molecular Probes, A-1351; Eugene, Oreg.) using excess diisopropylcarbodiimide (DIC) in dimethylformamide (DMF) at room temperature and was purified by silica gel chromatography (10% methanol in DCM). The N-terminal Fmoc protecting group was removed using piperidine (20%) in DMF, and purified by silica gel chromatography (20% methanol in DCM, 0.5% HOAc). Finally, the t-butyl side chain protective groups were removed using 95% trifluoroacetic acid containing 2.5% water and 2.5% triisopropyl silane. […] Compound #174 was also used as a fluorescent probe in this assay.
(§2) For all assays, the fluorescence and fluorescence-polarization was evaluated using a Tecan Polarion instrument with the excitation filter set at 485 nm and the emission filter set at 535 nm. For each assay, the concentration of the target protein was first establish by titration of the selected protein in order to produce a linear dose-response signal when incubated alone in the presence of the fluorescent probe. Upon establishing these conditions, the compounds potency (IC50) and selectivity, was assessed in the presence of a fix defined-amount of target protein and fluorescent probe and a 10 point serial dilution of the selected compounds. For each IC50 curve, the assays were run as followed: 25 ul/well of diluted compound in 50 mM MES buffer pH 6.5 were added into a black 96 well plate then 25 ul/well of bovine serum albumin (BSA) at 0.5 mg/ml in 50 mM MES pH 6.5. Auto-fluorescence for each compound was first assessed by performing a reading of the compound/BSA solution alone. Then 25 ul of the fluorescein probe diluted into 50 mM MES containing 0.05 mg/ml BSA were added and a reading to detect quenching of fluorescein signal done. Finally 25 ul/well of the target or control protein (GST-BIRs) diluted at the appropriate concentration in 50 mM MES containing 0.05 mg/ml BSA were added and the fluorescence polarization evaluated.
(§3) For each assay the relative polarization-fluorescence units were plotted against the final concentrations of compound and the IC50 calculated using the Grad pad prism software and/or Cambridge soft. The ki value were derived from the calculated IC50 value as described above and according to the equation described in Nikolovska-Coleska, Z. (2004) Anal Biochem 332, 261-273.
(§4) Compounds exemplified in Table 6 were tested and found to have IC50s in the following ranges: A: >10 μM; B: <10 μM; C: <1 μM using the fluorescence polarization assay, as shown in Table 5. Each of the IC50s was calculated from Graph Pad.

[1] = target: T2, caspase-3 inhibited by linker BIR2-BIR3-RING of XIAP (Homo sapiens, UniProt P98170); experiment: Caspase-3 linker-BIR2-BIR3-RING derepression assay; type: biochemical
T2 construct: made in house; host or cells: E. coli DH5-alpha (GST-XIAP); E. coli AD494 (His-caspase-3)
Description: In order to determine the relative activity of the selected compound against BIR2, an in vitro assay was used where caspase-3 was inhibited by linker-BIR2 or linker BIR2-BIR3-RING of XIAP. Briefly, 1.5 ul of the enzyme, 0.25 uM to 2 uM of GST-Xiap fusion protein (GST-linker BIR2, GST-linker BIR2BIR3RING) were co-incubated with serial dilutions of compound (80 uM-0.04 uM). Caspase 3 activity was measured by overlaying 25 ul of a 0.4 mM DEVD-AMC solution. Final reaction volume was 100 ul. All dilutions were performed in caspase buffer (50 mM Hepes pH 7.4, 100 mM NaCl, 10% sucrose, 1 mM EDTA, 10 mM DTT, 0.1% CHAPS (Stennicke, H. R., and Salvesen, G. S. (1997). Biochemical characteristics of caspase-3, -6, -7, and -8. J. Biol. Chem. 272, 25719-25723)).
The fluorescent AMC released from the caspase-3 hydrolysis of the substrate was measured in a TECAN spectrophotometer at 360 nm excitation and 444 nm emission, on a kinetic cycle of 30 minutes with readings taken every 2 minutes. Caspase activity was calculated as Vo of AMC fluorescence/sec. Caspase de-repression by our compounds were compared to caspase-3 alone and caspase 3 repressed by the presence of XIAP fusion protein.
(§5) Results: Compounds were also tested in the apoptosome assay and the linker-BIR2/caspase-3 inhibition assay and found to have IC50s in the following ranges: A: >10 μM; B: <10 μM; C: <1 μM, as shown in Table 7.

[2] = target: T3, XIAP Bir3-RING (GST-BIR 3RING) (Homo sapiens, UniProt P98170); experiment: Caspase de-repression assay using cellular extracts (apoptosome), XIAP Bir3-RING; type: biochemical; conditions: 293 cell S100 extract
T3 construct: made in house; host or cells: E. coli DH5-alpha
Description: (§6) 100 ug of 293 cell S100 extract and 0.25 uM-2 uM of GST-Xiap fusion protein (GST-BIR 3RING, GST-linker BIR2 BIR3RING) were co-incubated with serial dilutions of compound (0.02 uM-40 uM). Extracts were activated by adding 1 mM dATP, 0.1 mM ALLN, 133 ug Cytochrome C (final concentrations), and incubating at 37° C. for 25 minutes. All reactions and dilutions used S100 buffer (50 mM Pipes pH 7.0, 50 mM KCl, 0.5 mM EGTA pH 8.0, 2 mM MgCl2 supplemented with 1/1000 dilutions of 2 mg/ml Cytochalisin B, 2, mg/ml Chymotstatin, Leupeptin, Pepstatin, Antipain, 0.1M PMSF, 1M DTT). Final reaction volume was 30 ul. Caspase-3 activity was measured by overlaying 30 ul of a 0.4 mM DEVD-AMC solution. AMC cleavage was measured in a TECAN spectrophotometer at 360 nm excitation and 444 nm emission, on a kinetic cycle of 1 hour with readings taken every 5 minutes. Caspase activity was calculated as Vo of AMC fluorescence/sec. Caspase de-repression by our compounds were compared to fully activated extract and activated extract repressed by the presence of XIAP fusion protein.
as §5

GST-HIAP1(cIAP-2) BIR 3 = target: T4, GST-HIAP1(cIAP-2) BIR 3 (Homo sapiens, UniProt Q13489); experiment: Fluorescence polarization-based competition assay, cIAP-2 Bir3; type: binding
T4 construct: made in house; host or cells: E. coli DH5-alpha
Description: GST-HIAP1(cIAP-2) BIR 3: HIAP1 coding sequence from amino acids 236-349, cloned into PGex4T3 via BamH1 and XhoI. The plasmid was transformed into E. coli DH5α for use in protein expression and purification.
as §1, §2, §3, §4

[3] = target: T5, XIAP Bir2-Bir3-RING (GST-linker BIR2 BIR3RING) (Homo sapiens, UniProt P98170); experiment: Caspase de-repression assay using cellular extracts (apoptosome), XIAP Bir2-Bir3-RING; type: biochemical; conditions: 293 cell S100 extract
T5 construct: made in house; host or cells: E. coli DH5-alpha
Description: as §6, §5

GST-HIAP2 (cIAP-1) BIR 3 = target: T6, GST-HIAP2 (cIAP-1) BIR 3 (Homo sapiens, UniProt Q13490); experiment: Fluorescence polarization-based competition assay, cIAP-1 Bir3; type: binding
T6 construct: made in house; host or cells: E. coli DH5-alpha
Description: GST-HIAP2 (cIAP-1) BIR 3: HIAP2 coding sequence from amino acids 251-363 cloned into PGex4T3 via BamH1 and XhoI. The plasmid was transformed into E. coli DH5α for use in protein expression and purification.
as §1, §2, §3, §4

T1 sequence (P98170 246-497): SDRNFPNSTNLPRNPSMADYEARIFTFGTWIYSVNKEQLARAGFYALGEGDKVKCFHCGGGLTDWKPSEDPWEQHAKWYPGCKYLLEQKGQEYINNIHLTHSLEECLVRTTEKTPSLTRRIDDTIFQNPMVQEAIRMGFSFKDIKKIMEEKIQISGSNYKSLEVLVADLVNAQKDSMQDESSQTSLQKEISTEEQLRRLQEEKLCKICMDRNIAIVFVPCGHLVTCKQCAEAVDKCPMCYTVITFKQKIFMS
T3 sequence (P98170 246-497): as above
T4 sequence (Q13489 236-349): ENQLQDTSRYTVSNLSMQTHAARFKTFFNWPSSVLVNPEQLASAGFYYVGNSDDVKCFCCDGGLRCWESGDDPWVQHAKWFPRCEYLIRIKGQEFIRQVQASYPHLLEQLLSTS
T5 sequence (P98170 93-497): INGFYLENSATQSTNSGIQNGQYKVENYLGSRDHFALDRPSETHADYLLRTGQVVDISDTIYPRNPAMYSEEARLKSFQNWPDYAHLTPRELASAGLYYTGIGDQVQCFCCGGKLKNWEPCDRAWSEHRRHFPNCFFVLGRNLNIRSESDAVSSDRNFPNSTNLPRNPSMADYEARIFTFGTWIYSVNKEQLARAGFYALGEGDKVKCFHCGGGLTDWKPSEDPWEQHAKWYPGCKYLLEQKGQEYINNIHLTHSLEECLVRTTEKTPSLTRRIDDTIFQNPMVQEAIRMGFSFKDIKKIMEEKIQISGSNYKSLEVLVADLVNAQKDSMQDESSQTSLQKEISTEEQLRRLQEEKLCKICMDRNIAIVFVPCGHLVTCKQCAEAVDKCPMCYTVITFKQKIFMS
T2 sequence (P98170 93-497): as above
T6 sequence (Q13490 251-363): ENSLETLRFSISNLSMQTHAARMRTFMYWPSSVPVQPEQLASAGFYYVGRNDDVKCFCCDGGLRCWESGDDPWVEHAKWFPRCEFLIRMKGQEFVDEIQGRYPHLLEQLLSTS

Row | SMILES | pIC50 (GST-XIAP BIR3RING) | pIC50 [1] | pIC50 [2] | pIC50 (GST-HIAP1(cIAP-2) BIR 3) | pIC50 [3] | pIC50 (GST-HIAP2 (cIAP-1) BIR 3)
1 | CC(=O)N(Cc1ccccn1)C[C@@H]1CCCN1C(=O)[C@@H](NC(=O)[C@H](C)N)C(C)C [Compound 8] | < 5.00 | < 5.00 | > 6.00 | > 5.00 | < 5.00 | > 5.00
2 | CN[C@@H](C)C(=O)N[C@H](C(=O)N1CCC[C@H]1CN(CCc1ccccc1)C(=O)C(F)(F)F)C(C)(C)C [Compound 10] | > 6.00 | < 5.00 | > 5.00 | > 6.00 | < 5.00 | > 6.00
3 | CC(C)[C@H](NC(=O)[C@H](C)N)C(=O)N1CCC[C@H]1CN(CCc1ccccc1)C(=O)OCc1ccccc1 [Compound 15] | > 6.00 | < 5.00 | > 5.00 | > 6.00 | < 5.00 | > 6.00
4 | CC(C)[C@H](NC(=O)[C@H](C)N)C(=O)N1CCC[C@H]1CN(CCc1ccccc1)C(=O)CCc1ccccc1 [Compound 21] | > 6.00 | < 5.00 | > 6.00 | > 6.00 | < 5.00 | > 6.00
5 | CC(C)[C@H](NC(=O)[C@H](C)N)C(=O)N1CCC[C@H]1CN(CCc1ccccc1)C(=O)Cc1ccccc1 [Compound 23] | > 6.00 | < 5.00 | > 6.00 | > 6.00 | < 5.00 | > 6.00
6 | CN[C@@H](C)C(=O)N[C@H](C(=O)N1CCC[C@H]1CN(CCc1ccccc1)C(=O)CCc1ccccc1)C(C)(C)C [Compound 27] | > 6.00 | < 5.00 | > 6.00 | > 6.00 | > 5.00 | > 6.00
7 | CC(C)[C@H](NC(=O)[C@H](C)N)C(=O)N1CCC[C@H]1CN(CCCCO)CCc1ccccc1 [Compound 29] | > 5.00 | < 5.00 | > 6.00 | > 6.00 | > 5.00 | > 6.00
8 | CC(C)[C@H](NC(=O)[C@H](C)N)C(=O)N1CCC[C@H]1CN(CCc1ccccc1)C(=O)CCCc1ccccc1 [Compound 31] | > 6.00 | < 5.00 | > 6.00 | > 6.00 | < 5.00 | > 6.00

Results, then the molecule that gave them:

Row | pIC50 (GST-XIAP BIR3RING) | pIC50 [1] | pIC50 [2] | pIC50 (GST-HIAP1(cIAP-2) BIR 3) | pIC50 [3] | pIC50 (GST-HIAP2 (cIAP-1) BIR 3) | SMILES
9 | < 5.00 | < 5.00 | > 6.00 | < 5.00 | > 5.00 | < 5.00 | CC[C@H](N)C(=O)N[C@H](C(=O)N1CCC[C@H]1CN([C@H](C)c1ccccc1)S(C)(=O)=O)C(C)C [Compound 6]
10 | > 5.00 | < 5.00 | > 6.00 | < 5.00 | < 5.00 | < 5.00 | CC[C@H](N)C(=O)N[C@H](C(=O)N1CCC[C@H]1CN(C(C)=O)[C@@H]1CCCc2ccccc21)C(C)C [Compound 9]
11 | > 5.00 | < 5.00 | > 6.00 | < 5.00 | < 5.00 | < 5.00 | CC[C@H](N)C(=O)N[C@H](C(=O)N1CCC[C@H]1CN(Cc1ccccc1)C(=O)C(F)(F)F)C(C)C [Compound 12]
12 | > 5.00 | < 5.00 | > 5.00 | < 5.00 | < 5.00 | > 5.00 | CC[C@H](N)C(=O)N[C@H](C(=O)N1CCC[C@H]1CN(C(=O)C(F)(F)F)[C@H](C)c1ccccc1)C(C)C [Compound 13]
13 | < 5.00 | < 5.00 | > 5.00 | < 5.00 | < 5.00 | < 5.00 | CC[C@H](N)C(=O)N[C@H](C(=O)N1CCC[C@H]1CNC(=O)Cc1ccccc1)C(C)C [Compound 14]
14 | > 5.00 | < 5.00 | > 6.00 | > 6.00 | < 5.00 | > 6.00 | CC(C)[C@H](NC(=O)[C@H](C)N)C(=O)N1CCC[C@H]1CN(CCc1ccccc1)S(C)(=O)=O [Compound 17]
15 | > 6.00 | < 5.00 | > 6.00 | > 6.00 | < 5.00 | > 6.00 | CC(C)[C@H](NC(=O)[C@H](C)N)C(=O)N1CCC[C@H]1CNCCc1ccccc1 [Compound 18]
16 | > 6.00 | < 5.00 | > 6.00 | > 6.00 | < 5.00 | > 6.00 | CC(=O)N(CCc1ccccc1)C[C@@H]1CCCN1C(=O)[C@@H](NC(=O)[C@H](C)N)C(C)C [Compound 19]
17 | > 6.00 | < 5.00 | > 6.00 | > 6.00 | < 5.00 | > 6.00 | CC(C)[C@H](NC(=O)[C@H](C)N)C(=O)N1CCC[C@H]1CN(CCc1ccccc1)C(=O)C(F)(F)F [Compound 20]
18 | > 6.00 | < 5.00 | > 6.00 | > 6.00 | < 5.00 | > 6.00 | CCCC(=O)N(CCc1ccccc1)C[C@@H]1CCCN1C(=O)[C@@H](NC(=O)[C@H](C)N)C(C)C [Compound 22]
19 | > 6.00 | < 5.00 | > 6.00 | > 6.00 | < 5.00 | > 6.00 | CC(C)[C@H](NC(=O)[C@H](C)N)C(=O)N1CCC[C@H]1CN(CCc1ccccc1)C(=O)CN [Compound 30]
